The values below come from ChEMBL document CHEMBL5230122, “Natural products and other inhibitors of F1FO ATP synthase” (Eur J Med Chem, 2020).

The subject of one data set is NCI-H292. Kind of data set: Antiproliferative activity against human NCI-H292 cells assessed as reduction in cell viability by MTT assay. It counts as functional, cell-based.
The next data set has as its system HeLa. Kind of data set: Antiproliferative activity against human HeLa cells assessed as reduction in cell viability by MTT assay. It is filed as functional, cell-based. (In general: Tetrazolium dyes change colour on reduction, which living cells bring about.)
Data set [1] has as its system MCF7. Kind of data set: Antitumor activity against human MCF7 cells assessed as reduction in cell viability incubated for 24 hrs by MTT assay. It counts as functional, cell-based. The conditions noted are these: MCF7, 24 h.
Data set [2] can be described thus: Inhibition of bovine heart mitochondrial F0F1-ATPase assessed as reduction in ATP synthesis by fluorescence assay. It counts as mitochondria, Bos taurus, Mitochondria.
Data set [3] is described as follows: Inhibition of bovine heart mitochondrial F0F1-ATPase assessed as decrease in rate of ATP hydrolysis by fluorescence assay. It is filed as mitochondria, Bos taurus, Mitochondria.
The next data set relates to T47D. Kind of data set: Antiproliferative activity against human T47D cells assessed as reduction in cell viability incubated for 48 hrs by MTT assay. It is filed as functional, cell-based.
The subject of another data set is MDA-MB-231. The data set can be described thus: Antiproliferative activity against human MDA-MB-231 cells assessed as reduction in cell viability incubated for 48 hrs by MTT assay. To be noted: MDA-MB-231, 48 h. It is filed as functional, cell-based.
In data set [4] the test system is MCF7. Kind of data set: Antiproliferative activity against human MCF7 cells assessed as reduction in cell viability incubated for 48 hrs by MTT assay. It is filed as functional, cell-based. To be noted: MCF7, 48 h.
Another data set concerns HL-60. Kind of data set: Antiproliferative activity against human HL-60 cells assessed as reduction in cell viability incubated for 48 hrs by MTT assay. It is filed as functional, cell-based. To be noted: HL-60, 48 h.
For the next data set, the system named is SMMC-7721. The data set can be described thus: Antiproliferative activity against human SMMC-7721 cells assessed as reduction in cell viability incubated for 48 hrs by MTT assay. It is filed as functional, cell-based. To be noted: SMMC-7721, 48 h.
The next data set deals with A549. Kind of data set: Antiproliferative activity against human A549 cells assessed as reduction in cell viability incubated for 48 hrs by MTT assay. It is filed as functional, cell-based. To be noted: A549, 48 h.
A further data set has as its system SW480. Kind of data set: Antiproliferative activity against human SW480 cells assessed as reduction in cell viability incubated for 48 hrs by MTT assay. It is filed as functional, cell-based. To be noted: SW480, 48 h.
Data set [5] in a line: Cytotoxicity against mouse L929 cells assessed as reduction in cell viability. It counts as toxicity, cell-based.
Another data set relates to GBM. Kind of data set: Anticancer activity against human GBM cells carrying high-throughput GBM sphere assessed as reduction in cell viability incubated for 96 hrs by Cell-Titer-Glo assay. It counts as functional, cell-based.
For another data set, the system named is P388. Kind of data set: Anticancer activity against mouse P388 cells assessed as reduction in cell viability incubated for 96 hrs by MTT assay. It is filed as functional, cell-based. The conditions noted are these: P388, 96 h.
The nature of data set [6]: Inhibition of bovine heart mitochondrial F0F1-ATP synthase F0 domain assessed as reduction in rate of NADH oxidation for 30 mins by colorimetric assay. It is filed as mitochondria, Bos taurus, Mitochondria.
In data set [7] the test system is DU-145. The data set can be described thus: Antiproliferative activity against human DU-145 cells assessed as reduction in cell viability incubated for 3 days by rhodanile-blue dye based microplate reader analysis. It counts as functional. The conditions noted are these: DU-145, 72 h.
Data set [8] concerns DU-145. Kind of data set: Antiproliferative activity against human DU-145 cells assessed as reduction in cell viability preincubated with PrSCs cells for 2 days followed by co-culture with DU-145 for 3 days by rhodanile-blue dye based microplate reader analysis. It is filed as functional.
Data set [9] in a line: Acute toxicity in mouse assessed as maximum tolerated dose. The conditions noted are these: in vivo.

≈ marks a conversion by molar mass, not a printed value. Square brackets hold non-standard residues; d marks the D form. Peptide text beside a SMILES is read from it. * marks the point of attachment. Leu(3R-OH) = CC(C)[C@@H](O)[C@H](N)C(=O)O; NH((S)CH(Me)CH2NMe2) = C[C@@H](CN(C)C)N*; Pro(4S-Me) = C[C@@H]1CN[C@H](C(=O)O)C1; X1 = CC[C@@H](C)/C=C/C(=O)*; Aib = CC(C)(N)C(=O)O; βAla = NCCC(=O)O

The IC50 is the midpoint of a concentration-inhibition curve. The term Ki denotes the dissociation constant of the complex between target and ligand, obtained from inhibition or displacement. Usually MTD stands for the highest dose tested that stayed within the study's limit of toxicity.

Consider `COC[C@@H](C[C@H]1O[C@@](O)([C@H](O)[C@@H]2C[C@H](OC)[C@@H](O)CC/C=C(C)/C=C/[C@@H](O[C@@H]3O[C@@H](C)[C@H](OC)[C@@H](O)[C@@H]3OC(=O)CCC(=O)O)[C@H](C)/C=C(C)/C=C(C)/C=C(\C)C(=O)O2)[C@H](C)[C@@H](O)[C@H]1C)O[C@H]1C[C@](C)(O)[C@@H](O[C@H]2C[C@@H](OC)[C@H](O)[C@@H](C)O2)[C@H](C)O1`, for which the figures for the IC50 in the data set on NCI-H292 and in the data set on HeLa were 91 nM and 240 nM, respectively.

`O=C(Oc1cc(/C=C/c2ccc(O)cc2)cc(OC(=O)c2ccco2)c1)c1ccco1`: the concentration for half-maximal inhibition (IC50) in the data set with MCF7 [1] was 42700 nM.

On to `COC[C@@H](C[C@H]1O[C@@](O)([C@H](O)[C@@H]2C[C@H](OC)[C@@H](O)CC/C=C(C)/C=C/[C@@H](O[C@@H]3O[C@@H](C)[C@H](OC)[C@@H](OC(=O)CCC(=O)O)[C@@H]3O)[C@H](C)/C=C(C)/C=C(C)/C=C(\C)C(=O)O2)[C@H](C)[C@@H](O)[C@H]1C)O[C@H]1C[C@](C)(O)[C@@H](O[C@H]2C[C@@H](OC)[C@H](O)[C@@H](C)O2)[C@H](C)O1`, for which the figures for the IC50 in the data set with NCI-H292 and with HeLa were 82 nM and 260 nM, respectively.

As for `Oc1ccc(/C=C/c2cc(O)cc(O)c2)cc1` [RESVERATROL], the IC50 in the data set on MCF7 [1] was 80000 nM.

As for `CC[C@H]1O[C@@]2(C)[C@H](OC(C)=O)[C@@]1(C)O[C@@H](/C=C/C=C/C=C/c1oc(=O)cc(OC)c1C)[C@@H]2O`, the Ki in data set [2] came to 25 nM; in data set [3], 120 nM. Also, the IC50 is 890 nM in the data set with T47D; 5520 nM in the data set with MDA-MB-231; 90 nM in the data set on MCF7 [4]; 14700 nM with HL-60; 10800 nM in the data set on SMMC-7721; 14700 nM in the data set with A549. The IC50 in the data set on SW480 is 22400 nM.

For `CCC[C@H](O)[C@@H](C)C(=O)NC/C=C\C[C@@H](C)[C@@H](O)[C@H](C)[C@@H](O)C/C=C\C[C@H](C)[C@H]1Cc2cc(OC)cc(O)c2C(=O)O1`, in data set [5], the IC50 was above 1 µg/mL.

For the compound `CCc1n(CC(=O)O[C@@H]2C[C@H](C)CC[C@H]2C(C)C)c2ccccc2[n+]1C`, in the data set with GBM, the IC50 is 150 nM.

Consider `CC/C(C)=C(\NC(=O)[C@@H](NC(=O)CC(=O)[C@@H](C)CC(C)C)[C@](C)(O)CC)C(=O)NCC(=O)N/C(C(=O)N[C@@H](C(=O)N[C@@H](C(=O)N[C@@H](C(=O)N[C@H](C(=O)N/C(C(=O)N[C@H](C)C(=O)N[C@@H](C(=O)N[C@H](C(=O)NC(C(=O)N[C@H](CN(C)C)C(C)C)=C(C)C)C(C)C)C(C)C)=C(\C)CC)C(C)(C)O)C(C)(C)O)[C@@H](C)CC)C(C)C)=C(\C)CC`, for which the half-inhibitory concentration (IC50) with P388 is 0.88 nM.

Regarding `CC[C@@H](C)/C=C/C(=O)N1C[C@@H](C)C[C@H]1C(=O)N[C@@H](C)C(=O)N[C@H](C(=O)NC(C)(C)C(=O)N[C@@H](CC(C)C)C(=O)N[C@@H](CC(C)C)C(=O)NC(C)(C)C(=O)NC(C)(C)C(=O)NCCC(=O)N[C@@H](C)CN(C)C)[C@H](O)C(C)C` (X1-[Pro(4S-Me)]A[Leu(3R-OH)][Aib]LL[Aib][Aib][βAla]-{NH((S)CH(Me)CH2NMe2)}), the half-inhibitory concentration (IC50) in [6] was 2.8 µg/mL (≈ 2.6 µM); in the data set with DU-145 [7], above 1 µg/mL; in the data set on DU-145 [8] it was 0.21 µg/mL (≈ 0.195 µM). The MTD in data set [9] was 12.5 mg/kg.

Turning to `CC(C)[C@@H]1CC[C@@H](C)C[C@H]1OC(=O)Cn1c(-c2cccc(C(F)(F)F)c2)[n+](C)c2ccccc21`, the IC50 in the data set on GBM came to 470 nM.
